Experimental data reported in patent publication US20190262371A1, “METHODS AND COMPOSITION FOR THE TREATMENT OF RNA VIRAL INFECTIONS” (The Regents of the University of California, priority 2016, published 2019).

Test system: ZIKV (MR766)
Assay: Inhibitor activity analysis: effect of methyltransferase inhibitors on ZIKV replication in a microglial cell line (supernatant one-step qRT-PCR)
Assay type: cell-based, ZIKA virus
Conditions: assay not given, presumably ZIKV inhibition, 10 μM, MOI 1, 24 h / 48 h, normalized to DMSO
Method: FIG. 7. Microglial cell-line was plated 1×10^6 cells per well in 24 well plate and cultured for 24 h. Cell were then treated in triplicate with series of methyltransferase inhibitors ([…]) for one hour followed by infection with ZIKV (MR766, MOI: 1) and changed the fresh medium after 2 hrs of ZIKV infection and re-added the drugs. After 24 h of the infection, we collected the supernatant and did one-step qRT-PCR. Fold inhibition of ZIKV infection was normalized from DMSO control.
FIG. 8. Microglial cell-line was plated 1×10^6 cells per well in 24 well plate and cultured for 24 h. […]
Effects of methyltransferase inhibitors on ZIKV replication was monitored using previously published methods (Dang, J., Tiwari, S. K., Lichinchi, G., Qin, Y., Patil, V. S., Eroshkin, A. M., and Rana, T. M. (2016); Zika Virus Depletes Neural Progenitors in Human Cerebral Organoids through Activation of the Innate Immune Receptor TLR3. Cell Stem Cell 19, 258-265; Lichinchi, G., Zhao, B. S., Wu, Y., Lu, Z., Qin, Y., He, C., and Rana, T. M. (2016). Dynamics of Human and Viral RNA Methylation during Zika Virus Infection. Cell Host Microbe 20, 666-673; Tiwari, S. K., Dang, J., Qin, Y., Lichinchi, G., Bansal, V., and Rana, T. M. (2017), which are incorporated herein in their entirety for all purposes). […]

Nc1ncnc2c1ncn2C1OC(CNCCn2c3ccccc3c3ccccc32)C(O)C1O (stereo not shown) [TR-H-08]
activity (found to be an active compound): active
